Counter-ions that a name gives are not always drawn.
Key:
AXL = biological target: T1, AXL (Homo sapiens, UniProt P30530); test: TR-FRET kinase activity assay, AXL; assay type: biochemical; settings: ATP at Km, 60 minutes
T1 sequence (P30530 26-894): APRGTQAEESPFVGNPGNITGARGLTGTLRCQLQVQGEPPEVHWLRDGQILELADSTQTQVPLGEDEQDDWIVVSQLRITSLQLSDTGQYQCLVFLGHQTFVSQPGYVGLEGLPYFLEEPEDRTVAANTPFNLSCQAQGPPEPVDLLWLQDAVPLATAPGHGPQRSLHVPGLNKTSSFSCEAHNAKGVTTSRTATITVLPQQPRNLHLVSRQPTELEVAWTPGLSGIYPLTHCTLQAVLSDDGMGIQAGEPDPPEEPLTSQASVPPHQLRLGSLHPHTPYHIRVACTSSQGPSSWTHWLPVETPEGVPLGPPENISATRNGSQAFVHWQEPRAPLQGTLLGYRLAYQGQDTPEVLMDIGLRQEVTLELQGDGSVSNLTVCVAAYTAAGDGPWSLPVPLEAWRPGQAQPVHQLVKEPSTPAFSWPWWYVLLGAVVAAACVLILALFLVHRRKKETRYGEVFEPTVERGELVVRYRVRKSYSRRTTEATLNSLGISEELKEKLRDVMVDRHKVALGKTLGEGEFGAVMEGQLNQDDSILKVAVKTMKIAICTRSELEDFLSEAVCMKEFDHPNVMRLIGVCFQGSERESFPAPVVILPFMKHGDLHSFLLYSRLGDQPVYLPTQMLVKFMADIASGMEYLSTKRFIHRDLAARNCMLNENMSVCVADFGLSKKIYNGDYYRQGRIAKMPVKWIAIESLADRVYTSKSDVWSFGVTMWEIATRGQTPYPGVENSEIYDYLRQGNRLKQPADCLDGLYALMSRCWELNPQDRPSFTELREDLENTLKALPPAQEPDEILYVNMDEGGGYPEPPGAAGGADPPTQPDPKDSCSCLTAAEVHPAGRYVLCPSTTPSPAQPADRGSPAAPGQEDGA
Procedure, shortened: (§1)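 Recombinant human kinases, fluorescent peptide substrate, ATP at Km; 1 h RT, pH 7.5. EDTA-quenched, Eu antibody added, TR-FRET read; IC50 determined.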

MERTK = biological target: T2, MERTK (Homo sapiens, UniProt Q12866); test: TR-FRET kinase activity assay, MERTK; assay type: biochemical; settings: for IC50: TR-FRET activity assay, ATP at Km, 60 minutes, read-out: Mer IC50; for FLT3/Mer ratio (FLT3 IC50/Mer IC50): ratio of Mer to FLT3: FLT3 IC50/Mer IC50
T2 sequence (Q12866 21-999): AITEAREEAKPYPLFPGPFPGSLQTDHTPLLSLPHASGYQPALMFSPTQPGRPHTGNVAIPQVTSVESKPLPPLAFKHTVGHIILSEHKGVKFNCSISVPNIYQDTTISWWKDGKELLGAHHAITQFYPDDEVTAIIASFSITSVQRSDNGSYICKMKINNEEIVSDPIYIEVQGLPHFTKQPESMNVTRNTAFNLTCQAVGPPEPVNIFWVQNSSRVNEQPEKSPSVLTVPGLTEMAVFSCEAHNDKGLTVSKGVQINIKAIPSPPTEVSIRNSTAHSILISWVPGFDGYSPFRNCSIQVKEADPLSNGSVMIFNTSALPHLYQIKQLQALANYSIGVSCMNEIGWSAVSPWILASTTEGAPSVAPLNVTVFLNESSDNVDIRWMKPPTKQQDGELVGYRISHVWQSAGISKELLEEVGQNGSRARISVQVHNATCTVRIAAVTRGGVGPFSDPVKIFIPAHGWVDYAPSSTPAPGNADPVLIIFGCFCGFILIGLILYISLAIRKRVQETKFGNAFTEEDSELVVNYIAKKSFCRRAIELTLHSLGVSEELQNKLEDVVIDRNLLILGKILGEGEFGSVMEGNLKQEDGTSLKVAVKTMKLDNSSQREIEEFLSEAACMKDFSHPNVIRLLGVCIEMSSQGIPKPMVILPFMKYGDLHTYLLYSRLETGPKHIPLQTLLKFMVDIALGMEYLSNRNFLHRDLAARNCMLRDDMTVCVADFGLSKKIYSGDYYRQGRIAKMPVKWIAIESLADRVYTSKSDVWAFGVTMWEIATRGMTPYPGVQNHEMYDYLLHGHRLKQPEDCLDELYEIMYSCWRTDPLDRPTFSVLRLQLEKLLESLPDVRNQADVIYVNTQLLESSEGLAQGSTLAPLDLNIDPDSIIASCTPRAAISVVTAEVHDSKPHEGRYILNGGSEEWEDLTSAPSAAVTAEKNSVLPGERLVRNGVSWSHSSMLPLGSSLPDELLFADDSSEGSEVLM
Procedure, shortened: as §1

Structure (SMILES) | IC50 (AXL) | IC50 (MERTK) | FLT3/Mer ratio (FLT3 IC50/Mer IC50) (MERTK)
COC[C@H](C)Nc1ncc2c(-c3ccnc(OC4CCN(C)CC4)c3)cc([C@H]3CC[C@H](O)CC3)n2n1 [Compound 342] | ≤ 100 nM | ≤ 100 nM | +++ (“+++” represents a ratio of >100)
COC[C@H](C)Nc1ncc2c(-c3cnn(Cc4cnc(C)cn4)c3)cc([C@H]3CC[C@H](O)CC3)n2n1 [Compound 306] | ≤ 100 nM | ≤ 100 nM | +++ (“+++” represents a ratio of >100)
C[C@@H](CC(F)(F)F)Nc1ncc2c(-c3cnn([C@@H]4CCOC4)c3)cc([C@H]3CC[C@H](O)CC3)n2n1 [Compound 289] | ≤ 100 nM | ≤ 100 nM | + (“+” represents a ratio of >2.0 and <10)
CCCCC[C@H](C)Nc1ncc2c(C3CCNCC3)cc([C@H]3CC[C@H](O)CC3)n2n1 [Compound 116, (1S,4r)-4-(2-((S)-heptan-2-ylamino)-5-(piperidin-4-yl)pyrrolo[2,1-f][1,2,4]triazin-7-yl)cyclohexanol hydrochloride] | ≤ 100 nM | ≤ 100 nM | +++ (“+++” represents a ratio of >100)
COC[C@H](C)Nc1ncc2c(-c3ccc(CN4CCOCC4)cc3)cc([C@H]3CC[C@H](NC(C)=O)CC3)n2n1 [Compound 300, N-((trans)-4-(2-(((S)-1-methoxypropan-2-yl)amino)-5-(4-(morpholinomethyl)phenyl)pyrrolo[2,1-f][1,2,4]triazin-7-yl)cyclohexyl)acetamide] | ≤ 100 nM | ≤ 100 nM | +++ (“+++” represents a ratio of >100)
COC[C@H](C)Nc1ncc2c(-c3cnn(C4CCS(=O)(=O)CC4)c3)cc([C@H]3CC[C@H](O)CC3)n2n1 [Compound 323] | ≤ 100 nM | ≤ 100 nM | +++ (“+++” represents a ratio of >100)
Cc1nnc(Cn2cc(-c3cc([C@H]4CC[C@H](O)CC4)n4nc(N[C@@H](C)COC(F)F)ncc34)cn2)o1 [Compound 312] | ≤ 100 nM | ≤ 100 nM | +++ (“+++” represents a ratio of >100)
COC[C@H](C)Nc1ncc2c(-c3cnn(Cc4nnc(C)o4)c3)cc([C@H]3CC[C@H](O)CC3)n2n1 [Compound 277] | ≤ 100 nM | ≤ 100 nM | +++ (“+++” represents a ratio of >100)
COC[C@H](C)Nc1ncc2c(-c3cnn(C[C@H]4CCC(=O)N4)c3)cc([C@H]3CC[C@H](O)CC3)n2n1 [Compound 324] | ≤ 100 nM | ≤ 100 nM | +++ (“+++” represents a ratio of >100)
C[C@@H](CC(F)(F)F)Nc1ncc2c(-c3ccc(S(C)(=O)=O)nc3)cc([C@H]3CC[C@H](O)CC3)n2n1 [Compound 297] | ≤ 100 nM | ≤ 100 nM | ++ (“++” represents a ratio of between 10 and 100)
COC[C@H](C)Nc1ncc2c(-c3cnn(C4CN(C(C)=O)C4)c3)cc([C@H]3CC[C@H](O)CC3)n2n1 [Compound 286] | ≤ 100 nM | ≤ 100 nM | +++ (“+++” represents a ratio of >100)
CNC(=O)c1cc(-c2cc([C@H]3CC[C@H](O)CC3)n3nc(N[C@@H](C)COC)ncc23)cc(C)n1 [Compound 335] | 100 to 1000 nM | ≤ 100 nM | +++ (“+++” represents a ratio of >100)
CCCCC[C@H](C)Nc1ncc2c(N3CCC(C(=O)O)CC3)cc([C@H]3CC[C@H](O)CC3)n2n1 [Compound 117] | 100 to 1000 nM | ≤ 100 nM | +++ (“+++” represents a ratio of >100)
COC[C@H](C)Nc1ncc2c(-c3cnn(C(C)(C)C(=O)N4CCS(=O)(=O)CC4)c3)cc([C@H]3CC[C@H](O)CC3)n2n1 [Compound 331, 1-(1,1-dioxidothiomorpholino)-2-(4-(7-((trans)-4-hydroxycyclohexyl)-2-(((S)-1-methoxypropan-2-yl)amino)pyrrolo[2,1-f][1,2,4]triazin-5-yl)-1H-pyrazol-1-yl)-2-methylpropan-1-one] | ≤ 100 nM | ≤ 100 nM | +++ (“+++” represents a ratio of >100)
COC[C@H](C)Nc1ncc2c(-c3cnn(C(C)(C)C(=O)N4CC5(COC5)C4)c3)cc([C@H]3CC[C@H](O)CC3)n2n1 [Compound 326] | ≤ 100 nM | ≤ 100 nM | +++ (“+++” represents a ratio of >100)
CNC(=NC#N)N[C@H]1CC[C@H](c2cc(-c3ccc(CN4CCOCC4)cc3)c3cnc(N[C@@H](C)COC)nn32)CC1 [Compound 307] | ≤ 100 nM | ≤ 100 nM | +++ (“+++” represents a ratio of >100)
COCCn1cc(-c2cc([C@H]3CC[C@H](O)CC3)n3nc(N[C@@H](C)COC(F)F)ncc23)cn1 [Compound 274] | ≤ 100 nM | ≤ 100 nM | +++ (“+++” represents a ratio of >100)
COC[C@H](C)Nc1ncc2c(-c3cnn(C(C)(C)C(=O)C4C[C@H]5COC[C@H]5C4)c3)cc([C@H]3CC[C@H](O)CC3)n2n1 (stereo partly drawn) [Compound 319] | ≤ 100 nM | ≤ 100 nM | +++ (“+++” represents a ratio of >100)

Now from value to compound:

IC50 (AXL) | IC50 (MERTK) | FLT3/Mer ratio (FLT3 IC50/Mer IC50) (MERTK) | Structure (SMILES)
100 to 1000 nM | ≤ 100 nM | +++ (“+++” represents a ratio of >100) | CNC(=O)c1ncc(-c2cc([C@H]3CC[C@H](O)CC3)n3nc(N[C@@H](C)COC)ncc23)cn1 [Compound 334]
≤ 100 nM | ≤ 100 nM | +++ (“+++” represents a ratio of >100) | CNS(=O)(=O)c1cncc(-c2cc([C@H]3CC[C@H](O)CC3)n3nc(N[C@@H](C)COC(F)F)ncc23)c1 [Compound 275]
≤ 100 nM | ≤ 100 nM | +++ (“+++” represents a ratio of >100) | COCCOc1cc(-c2cc([C@H]3CC[C@H](O)CC3)n3nc(N[C@@H](C)COC)ncc23)ccn1 [Compound 345]
≤ 100 nM | ≤ 100 nM | +++ (“+++” represents a ratio of >100) | COC[C@H](C)Nc1ncc2c(-c3ccnc(NC(C)C)c3)cc([C@H]3CC[C@H](O)CC3)n2n1 [Compound 337]
≤ 100 nM | ≤ 100 nM | +++ (“+++” represents a ratio of >100) | Cc1ccc(-c2cc([C@H]3CC[C@H](O)CC3)n3nc(N[C@@H](C)COC(F)F)ncc23)cn1 [Compound 321]
≤ 100 nM | ≤ 100 nM | +++ (“+++” represents a ratio of >100) | COC[C@H](C)Nc1ncc2c(-c3cnn(CCS(C)(=O)=O)c3)cc([C@H]3CC[C@H](O)CC3)n2n1 [Compound 280]
≤ 100 nM | ≤ 100 nM | +++ (“+++” represents a ratio of >100) | C[C@@H](CC(F)(F)F)Nc1ncc2c(-c3cncc(C(=O)N4CCOCC4)c3)cc([C@H]3CC[C@H](O)CC3)n2n1 [Compound 311]

Source: patent US11040981B2, “Pyrrolotriazine compounds and methods of inhibiting TAM kinases” (Syros Pharmaceuticals, Inc., priority 2017, dated 2021)
